In patent publication US20120225896A1, “NOVEL 2-PYRIDONE DERIVATIVE AND PHARMACEUTICAL PRODUCT CONTAINING SAME” (KOWA COMPANY, LTD., priority 2009, published 2012):
Read-outs that look alike come from different tables or passages of the source.

What was measured:
[1] = target: T1, angiotensin II type 1 receptor (Oryctolagus cuniculus, UniProt P34976); assay: Angiotensin II antagonistic activity in isolated rabbit blood vessels (angiotensin II-induced contraction of thoracic aorta ring); assay type: cell-based; conditions: angiotensin II (10 nM)-induced contraction, 37° C.
T1 construct: By using a specimen of isolated rabbit blood vessels; from tissue; host or cells: rabbit thoracic aorta ring (New Zealand White, male)
T1 sequence (P34976 1-359): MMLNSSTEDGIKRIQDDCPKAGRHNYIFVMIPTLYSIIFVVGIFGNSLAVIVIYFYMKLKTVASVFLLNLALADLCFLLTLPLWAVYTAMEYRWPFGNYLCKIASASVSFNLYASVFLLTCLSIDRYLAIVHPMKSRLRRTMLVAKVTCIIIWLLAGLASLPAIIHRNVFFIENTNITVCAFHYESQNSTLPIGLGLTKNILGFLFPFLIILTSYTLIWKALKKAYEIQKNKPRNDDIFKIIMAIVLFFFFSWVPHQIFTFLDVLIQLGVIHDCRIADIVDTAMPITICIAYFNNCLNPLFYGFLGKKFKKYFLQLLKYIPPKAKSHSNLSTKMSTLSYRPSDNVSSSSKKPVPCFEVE
Description: Angiotensin II Antagonistic Activity in Isolated Rabbit Blood Vessels
By using a specimen of isolated rabbit blood vessels, antagonistic activity of the compounds of the invention against angiotensin II type 1 receptor was estimated from a dose-response curve of angiotensin II-induced blood vessel contraction. Specifically, the specimen of thoracic aorta ring of a rabbit (New Zealand White: male, 2.4 to 3.0 kg) was suspended in a magnus bath filled with Krebs-Henseleite buffer (composition: 118 mM NaCl, 4.7 mM KCl, 2.55 mM CaCl2, 1.18 mM MgSO4, 1.18 mM KH2PO4, 24.88 mM NaHCO3, and 11.1 mM D-glucose), and angiotensin II (10 nM)-induced contraction was obtained in the presence of the compounds of each example (1 nmol/L to 10 μmol/L). During the measurement, the inside temperature of the magnus bath was maintained at 37° C. and the bath was continuously ventilated with a sufficient amount of mixed gas (95% O2 and 5% CO2). The angiotensin II-induced contraction was converted into a relative value (%) that is based on the angiotensin II (10 nM)-induced contraction in the absence of the compounds of each example. From the concentration-response curve obtained therefrom, 50% inhibition concentration (IC50 value) was calculated by using SAS Preclinical Package Ver5.0 (trade name, manufactured by SAS institute Japan Co., Tokyo, Japan), which is a statistical analysis program.
As shown in the Table 1, it was confirmed that the compounds of the invention have a potent angiotensin II antagonistic activity.

human PPARγ2 = target: T2, human PPARγ2 (Homo sapiens, UniProt P37231); assay: PPARγ activation activity, Gal4-PPARγ2 LBD chimera luciferase transfection assay in COST cells; assay type: cell-based
T2 construct: the amino acids 182 to 505 of human PPARγ2; expressed in transfected cells; African green monkey kidney
Method: PPARγ Activation Activity
The agonistic activity of the compounds of the invention on PPARγ was measured based on the transfection assay using COST cells (DS Pharma Biomedical Co., Ltd., Osaka, Japan), which are the cell line derived from the kidney of the African green monkey. COST cells were cultured under 5% CO2 concentration, and DMEM medium containing 10% fetal bovine serum, glutamic acid, and antibiotics was used as a medium.
As an expression vector, a chimera in which DNA binding domain of Ga14, which is a yeast transcription factor, and ligand binding domain of human PPARγ2 are fused, i.e., a fused product between the amino acids 1 to 147 of Gal4 transcription factor and the amino acids 182 to 505 of human PPARγ2, was used. Furthermore, as a reporter vector, a firefly luciferase containing five copies of Gal4 recognition sequence in the promoter region was used. Plasmid transfection to the cells was performed according to a method which uses jetPEI (trade name, manufactured by Funakoshi Co., Ltd., Tokyo, Japan). Furthermore, β-galactosidase expression vector was employed as an internal standard.
After the transfection of the cells, the medium was replaced with a DMEM medium (containing 1% serum) added with the test compound, and the cells were further cultured for 16 hours. After that, the luciferase activity and β-galactosidase activity in the cell lysis solution were measured.
For the present test, dimethyl sulfoxide (DMSO) was used for dissolution and dilution of the test compounds, and during the cell treatment, the DMSO concentration in DMEM medium (containing 1% serum) was adjusted to 0.1%. The 50% effective concentration of the test compound (EC50, 50% effect concentration) was calculated by using SAS Preclinical Package Ver 5.0 (trade name, manufactured by SAS institute Japan Co., Tokyo, Japan), which is a statistical analysis program.
As shown in the Table 2, it was confirmed that the compounds of the present invention have a potent PPARγ activation activity. Under the same condition, the PPARγ activation activity of telmisartan, i.e., EC50, was 1 to 5 μM.

[2] = COST cells transfected with Gal4 (aa 1-147)/human PPARγ2 (aa 182-505) chimera, luciferase reporter, 16 hours, read-out: EC50

T2 sequence (P37231 182-505): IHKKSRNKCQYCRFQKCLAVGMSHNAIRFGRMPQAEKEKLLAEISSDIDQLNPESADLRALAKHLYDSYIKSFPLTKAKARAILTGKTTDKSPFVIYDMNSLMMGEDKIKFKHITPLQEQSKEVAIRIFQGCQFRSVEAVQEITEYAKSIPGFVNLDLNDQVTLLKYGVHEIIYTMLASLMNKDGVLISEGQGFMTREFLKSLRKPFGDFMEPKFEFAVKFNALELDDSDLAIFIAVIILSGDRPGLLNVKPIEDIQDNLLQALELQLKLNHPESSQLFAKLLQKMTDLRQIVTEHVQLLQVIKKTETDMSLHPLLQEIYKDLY
T2 sequence (P04386 1-147 partner limits assumed): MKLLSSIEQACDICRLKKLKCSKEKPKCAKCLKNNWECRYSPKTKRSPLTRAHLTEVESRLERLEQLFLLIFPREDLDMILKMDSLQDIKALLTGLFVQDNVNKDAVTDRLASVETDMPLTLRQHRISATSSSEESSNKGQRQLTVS

Structure (SMILES) | IC50 [1] | EC50 (human PPARγ2; [2]) | EC50 (human PPARγ2)
CCCCc1cc(C)n(-c2ccccn2)c(=O)c1Cc1ccc(-c2ccccc2-c2nnn[nH]2)cc1 [Example 15, 3-{[2′-(1H-tetrazol-5-yl)biphenyl-4-yl]methyl}-4-butyl-6-methyl-1-(pyridin-2-yl)pyridin-2(1H)-one] | 460 nM | 1660 nM | –
CCCOc1cc(C)n(Cc2ccccc2)c(=O)c1Cc1ccc(-c2ccccc2-c2noc(=O)[nH]2)cc1 [Example 18, 3-{4′-[(1-benzyl-6-methyl-2-oxo-4-propoxy-1,2-dihydropyridin-3-yl)methyl]biphenyl-2-yl}-1,2,4-oxadiazol-5(4H)-one] | – | 140 nM | –
CCCCc1cc(C)n(CCc2ccccc2)c(=O)c1Cc1ccc(-c2ccccc2-c2noc(=O)[nH]2)cc1 [Example 8, 3-{4′-[(4-butyl-6-methyl-2-oxo-1-phenethyl-1,2-dihydropyridin-3-yl)methyl]biphenyl-2-yl}-1,2,4-oxadiazol-5(4H)-one] | 390 nM | 200 nM | –
CCCc1cc(C)n(Cc2ccccc2)c(=O)c1Cc1ccc(-c2ccccc2-c2nnn[nH]2)cc1 [Example 3, 3-{[2′-(1H-tetrazol-5-yl)biphenyl-4-yl]methyl}-1-benzyl-6-m ethyl-4-propylpyridin-2(1H)-one] | – | 320 nM | –
CCCc1cc(C)n(Cc2ccccc2)c(=O)c1Cc1ccc(-c2ccccc2-c2noc(=O)[nH]2)cc1 [Example 4, 3-{4′-[(1-benzyl-6-methyl-2-oxo-4-propyl-1,2-dihydropyridin-3-yl)methyl]biphenyl-2-yl}-1,2,4-oxadiazol-5(4H)-one] | – | 200 nM | –
CCCCc1cc(C)n(CCc2ccccc2)c(=O)c1Cc1ccc(-c2ccccc2-c2nnn[nH]2)cc1 [Example 7, 3-{[2′-(1H-tetrazol-5-yl)biphenyl-4-yl]methyl}-4-butyl-6-methyl-1-phenethylpyridin-2(1H)-one] | 580 nM | 270 nM | –
CCCCc1cc(C)n(-c2ccccn2)c(=O)c1Cc1ccc(-c2ccccc2-c2noc(=O)[nH]2)cc1 [Example 16, 3-{4′-{[4-butyl-6-methyl-2-oxo-1-(pyridin-2-yl)-1,2-dihydropyridin-3-yl]methyl}biphenyl-2-yl}-1,2,4-oxadiazol-5(4H)-one] | – | 1400 nM | –
CCCc1nc2c(C)cc(-c3nc4ccccc4n3C)cc2n1Cc1ccc(-c2ccccc2C(=O)O)cc1 [telmisartan, reference compound] | – | – | 1000 to 5000 nM
CCCCc1cc(C)n(-c2ncc(OCC)cn2)c(=O)c1Cc1ccc(-c2ccccc2-c2noc(=O)[nH]2)cc1 [Example 12, 3-{4′-{[4-butyl-1-(5-ethoxypyrimidin-2-yl)-6-methyl-2-oxo-1,2-dihydropyridin-3-yl]methyl}biphenyl-2-yl}-1,2,4-oxadiazol-5(4H)-one] | 460 nM | 590 nM | –

Continued by falling EC50 (human PPARγ2; [2]), values first:

IC50 [1] | EC50 (human PPARγ2; [2]) | Structure (SMILES) | EC50 (human PPARγ2)
330 nM | 2220 nM | CCCCc1cc(C)n(-c2ncc(OCC)cn2)c(=O)c1Cc1ccc(-c2ccccc2-c2nnn[nH]2)cc1 [Example 11, 3-{[2′-(1H-tetrazol-5-yl)biphenyl-4-yl]methyl}-4-butyl-1-(5-ethoxypyrimidin-2-yl)-6-methylpyridin-2(1H)-one] | –
540 nM | 1270 nM | CCCCc1cc(C)n(-c2ncc(OC)cn2)c(=O)c1Cc1ccc(-c2ccccc2-c2noc(=O)[nH]2)cc1 [Example 14, 3-{4′-{[4-butyl-1-(5-methoxypyrimidin-2-yl)-6-methyl-2-oxo-1,2-dihydropyridin-3-yl]methyl}biphenyl-2-yl}-1,2,4-oxadiazol-5(4H)-one] | –
– | 580 nM | CCCOc1cc(C)n(Cc2ccccc2)c(=O)c1Cc1ccc(-c2ccccc2-c2nnn[nH]2)cc1 [Example 17, 3-{[2′-(1H-tetrazol-5-yl)biphenyl-4-yl]methyl}-1-benzyl-6-m ethyl-4-propoxypyridin-2(1H)-one] | –
160 nM | 560 nM | CCCCc1cc(C)n(CCOC)c(=O)c1Cc1ccc(-c2ccccc2-c2nnn[nH]2)cc1 [Example 9, 3-{[2′-(1H-tetrazol-5-yl)biphenyl-4-yl]methyl}-4-butyl-1-(2-methoxyethyl)-6-methylpyridin-2(1H)-one] | –
– | 500 nM | CCCCCc1cc(C)n(Cc2ccccc2)c(=O)c1Cc1ccc(-c2ccccc2-c2nnn[nH]2)cc1 [Example 5, 3-{[2′-(1H-tetrazol-5-yl)biphenyl-4-yl]methyl}-1-benzyl-6-m ethyl-4-pentylpyridin-2(1H)-one] | –
190 nM | 450 nM | CCCCc1cc(C)n(CCOC)c(=O)c1Cc1ccc(-c2ccccc2-c2noc(=O)[nH]2)cc1 [Example 10, 3-{4′-{[4-butyl-1-(2-methoxyethyl)-6-methyl-2-oxo-1,2-dihydropyridin-3-yl)methyl]biphenyl-2-yl}-1,2,4-oxadiazol-5(4H)-one] | –
– | 400 nM | CCCCc1cc(C)n(Cc2ccccc2)c(=O)c1Cc1ccc(-c2ccccc2-c2nnn[nH]2)cc1 [Example 1, 3-{[2′-(1H-tetrazol-5-yl)biphenyl-4-yl]methyl}-1-benzyl-4-butyl-6-methylpyridin-2(1H)-one] | –
– | 260 nM | CCCCc1cc(C)n(Cc2ccccc2)c(=O)c1Cc1ccc(-c2ccccc2-c2noc(=O)[nH]2)cc1 [Example 2, 3-{4′-[(1-benzyl-4-butyl-6-methyl-2-oxo-1,2-dihydropyridin-3-yl)methyl]biphenyl-2-yl}-1,2,4-oxadiazol-5(4H)-one] | –
– | 260 nM | CCCCCc1cc(C)n(Cc2ccccc2)c(=O)c1Cc1ccc(-c2ccccc2-c2noc(=O)[nH]2)cc1 [Example 6, 3-{4′-[(1-benzyl-6-methyl-2-oxo-4-pentyl-1,2-dihydropyridin-3-yl)methyl]biphenyl-2-yl}-1,2,4-oxadiazol-5(4H)-one] | –
